These are literature values, as cited in patent publication US8246984B2, “Formulation of insoluble small molecule therapeutics in lipid-based carriers” (Rigel Pharmaceuticals, Inc., priority 2005, dated 2012).

Molecules are shown by their SMILES.

The conditions of this data set: transition temperature, gel to liquid crystalline phase.
With `CCCCCCCCCCCCCC(=O)OC[C@H](COP(=O)([O-])OCC[N+](C)(C)C)OC(=O)CCCCCCCCCCCCC` [Dimyristoylphosphatidylcholine], the Tm is 23 °C.
As to `CCCCCCCC/C=C\CCCCCCCC(=O)OC[C@H](COP(=O)([O-])OCC[N+](C)(C)C)OC(=O)CCCCCCC/C=C\CCCCCCCC` [Dioleoylphosphatidylcholine, 1,2-dioleoyl-sn-glycero-3-phosphocholine], the Tm was −22 °C.
For the compound `CCCCCCCCCCCCCCCC(=O)OC[C@H](COP(=O)([O-])OCC[N+](C)(C)C)OC(=O)CCCCCCCCCCCCCCC` [Dipalmitoylphosphatidylcholine], the Tm was 41 °C.
Regarding `CCCCCCCCCCCCCCCCCC(=O)OC[C@H](COP(=O)([O-])OCC[N+](C)(C)C)OC(=O)CCCCCCCCCCCCCCCCC` [Distearoylphosphatidylcholine], the Tm was 55 °C.
